According to patent US20230279482A1, “COMPOSITIONS, METHODS AND USES FOR QUANTIFYING TRANSCRIPTION AND BIOSENSING OF SMALL MOLECULES USING A NOVEL TYPE VI CRISPR-CAS ASSAY” (THE REGENTS OF THE UNIVERSITY OF COLORADO, A BODY CORPORATE, priority 2020, published 2023):

Molecular target: T1, Cas13a (Leptotrichia wadei, UniProt U2PSH1)
T1 construct: His-tag (N, cleaved yes); twinstrep (N, cleaved yes); SUMO (N, cleaved yes); made in house; host or cells: BL21(DE3) Rosetta Escherichia coli
T1 sequence (U2PSH1 1-1182): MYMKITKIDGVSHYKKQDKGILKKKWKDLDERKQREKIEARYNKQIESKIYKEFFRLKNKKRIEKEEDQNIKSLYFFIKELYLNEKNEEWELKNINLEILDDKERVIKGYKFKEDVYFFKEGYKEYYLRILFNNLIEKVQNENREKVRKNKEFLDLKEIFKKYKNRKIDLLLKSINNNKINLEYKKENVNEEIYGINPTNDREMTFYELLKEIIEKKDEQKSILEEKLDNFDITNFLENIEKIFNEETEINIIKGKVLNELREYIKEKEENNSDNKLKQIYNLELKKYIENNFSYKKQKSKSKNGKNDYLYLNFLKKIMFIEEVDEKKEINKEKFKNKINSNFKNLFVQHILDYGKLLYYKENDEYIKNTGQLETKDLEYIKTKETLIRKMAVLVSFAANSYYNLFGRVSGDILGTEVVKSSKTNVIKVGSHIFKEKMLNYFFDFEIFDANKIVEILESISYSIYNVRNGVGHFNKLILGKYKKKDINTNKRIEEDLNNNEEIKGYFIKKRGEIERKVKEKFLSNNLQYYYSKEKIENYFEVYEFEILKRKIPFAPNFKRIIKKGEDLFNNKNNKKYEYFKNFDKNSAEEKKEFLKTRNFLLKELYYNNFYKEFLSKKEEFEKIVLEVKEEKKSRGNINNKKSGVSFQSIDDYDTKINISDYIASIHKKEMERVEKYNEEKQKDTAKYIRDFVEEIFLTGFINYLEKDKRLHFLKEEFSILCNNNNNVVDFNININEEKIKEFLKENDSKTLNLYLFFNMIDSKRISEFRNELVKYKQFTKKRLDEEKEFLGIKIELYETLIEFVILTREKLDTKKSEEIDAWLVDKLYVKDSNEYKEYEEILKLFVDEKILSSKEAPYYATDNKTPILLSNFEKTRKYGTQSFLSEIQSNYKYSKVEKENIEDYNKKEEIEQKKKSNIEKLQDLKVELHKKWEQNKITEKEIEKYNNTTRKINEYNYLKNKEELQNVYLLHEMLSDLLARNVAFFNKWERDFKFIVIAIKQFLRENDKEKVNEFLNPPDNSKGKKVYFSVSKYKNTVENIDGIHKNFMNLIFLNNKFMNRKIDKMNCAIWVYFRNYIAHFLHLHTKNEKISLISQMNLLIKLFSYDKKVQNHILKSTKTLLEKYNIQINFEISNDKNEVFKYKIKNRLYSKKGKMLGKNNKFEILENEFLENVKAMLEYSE
Experiment: SHERLOCK reactions without RNAP at varying sodium fluoride
Assay type: biochemical, Leptotrichia wadeii
Conditions: FIG. 6A
Protocol: Purification of LwaCas13a protein. LwaCas13a from Leptotrichia wadeii has a specific preference for collaterally cleaving poly-uracil ssRNA oligos and was used for various experiments in these examples. LwaCas13a was purified as follows. The expression plasmid (pC013) encoded LwaCas13a with an N-terminal His-tag, followed by twinstrep and SUMO tags. The plasmid was transformed into BL21(DE3) Rosetta Escherichia coli cells. 20 mL bacterial culture was grown overnight in Luria broth (LB) medium supplemented with 100 μM carbenicillin that was used to inoculate 1 L cultures in LB medium. The culture was shaken at 37° C. until the OD600 reached around 0.6. The culture was cooled down to approximately 20° C. in a cold water bath and protein expression was induced by adding 0.5 mM Isopropyl beta-D-1-thiogalactopyronoside (IPTG). The culture was grown in a 20° C. shaker for 16 hours. […] Protein concentration was determined using the absorbance at 280 nm and an extinction coefficient of 119800 M^−1 cm^−1; 1.5 mL of 47 μM protein was obtained from 2 liters of culture. […]
In other methods, SHERLOCK reactions were performed with purified target RNA as input, the concentration of the components, order of addition of components and measurement of fluorescence was carried out the same way as in the SPRINT reactions. […]

fluoride concentration at which Cas13a activity sharply dropped: around 600 μM
SMILES: [F-].[Na+] [fluoride, sodium fluoride]
